How the values were obtained:
[1] = Ratio of drug uptake in rat temporal cortex to cerebellum by measuring radioactivity at 10 mins postinjection; type: ADME, organism-based; conditions: in vivo
[2] = Ratio of drug uptake in rat temporal cortex to cerebellum by measuring radioactivity at 20 mins postinjection; type: ADME, organism-based; conditions: in vivo
[3] = biological target: T1, 5-hydroxytryptamine receptor 2C (Homo sapiens) (UniProt P28335); assay: Binding affinity to 5-HT2C (unknown origin); conditions: filed as agonist
T1 sequence (whole entry): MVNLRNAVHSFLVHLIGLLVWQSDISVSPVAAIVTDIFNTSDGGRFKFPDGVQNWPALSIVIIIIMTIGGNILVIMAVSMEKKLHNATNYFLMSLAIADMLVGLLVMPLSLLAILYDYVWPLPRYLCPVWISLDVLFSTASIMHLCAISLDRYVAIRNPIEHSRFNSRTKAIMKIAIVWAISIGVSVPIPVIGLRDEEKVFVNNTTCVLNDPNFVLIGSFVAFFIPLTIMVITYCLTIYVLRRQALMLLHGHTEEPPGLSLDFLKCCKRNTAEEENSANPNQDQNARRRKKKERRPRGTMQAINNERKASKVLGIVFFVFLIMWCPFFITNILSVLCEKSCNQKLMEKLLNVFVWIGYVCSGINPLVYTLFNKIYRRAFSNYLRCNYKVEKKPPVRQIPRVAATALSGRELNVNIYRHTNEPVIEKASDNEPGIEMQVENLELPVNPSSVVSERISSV

[4] = biological target: T1, 5-hydroxytryptamine receptor 2C (Homo sapiens); assay: Agonist activity at 5-HT2C receptor (unknown origin); type: functional; conditions: filed as agonist
[5] = Drug uptake in pig brain cortex assessed as non-displaceable binding potential; type: ADME, tissue-based, Sus scrofa; conditions: in vivo
[6] = biological target: T2, 5-hydroxytryptamine receptor 1A (Homo sapiens, UniProt P08908)
T2 sequence (P08908 whole entry): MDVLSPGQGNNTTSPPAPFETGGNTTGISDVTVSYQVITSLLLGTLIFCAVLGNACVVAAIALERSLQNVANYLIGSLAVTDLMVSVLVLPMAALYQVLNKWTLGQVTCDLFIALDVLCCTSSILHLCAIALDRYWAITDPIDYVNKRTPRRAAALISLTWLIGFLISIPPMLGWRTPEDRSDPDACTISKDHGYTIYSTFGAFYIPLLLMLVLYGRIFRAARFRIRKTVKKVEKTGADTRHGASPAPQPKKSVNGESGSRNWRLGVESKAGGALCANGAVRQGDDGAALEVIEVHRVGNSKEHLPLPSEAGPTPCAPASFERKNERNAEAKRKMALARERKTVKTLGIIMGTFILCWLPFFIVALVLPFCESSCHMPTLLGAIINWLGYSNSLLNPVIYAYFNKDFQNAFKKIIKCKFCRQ

[7] = Lipophilicity, logD of the compound at pH 7.4; type: physicochemical; conditions: buffer
[8] = biological target: 5-hydroxytryptamine receptor 2A (Homo sapiens, UniProt P28223)
[9] = biological target: T3, Alpha-1A adrenergic receptor (Homo sapiens, UniProt P35348); assay: Binding affinity to alpha 1A adrenergic receptor (unknown origin) assessed as inhibition constant
T3 sequence (P35348 whole entry): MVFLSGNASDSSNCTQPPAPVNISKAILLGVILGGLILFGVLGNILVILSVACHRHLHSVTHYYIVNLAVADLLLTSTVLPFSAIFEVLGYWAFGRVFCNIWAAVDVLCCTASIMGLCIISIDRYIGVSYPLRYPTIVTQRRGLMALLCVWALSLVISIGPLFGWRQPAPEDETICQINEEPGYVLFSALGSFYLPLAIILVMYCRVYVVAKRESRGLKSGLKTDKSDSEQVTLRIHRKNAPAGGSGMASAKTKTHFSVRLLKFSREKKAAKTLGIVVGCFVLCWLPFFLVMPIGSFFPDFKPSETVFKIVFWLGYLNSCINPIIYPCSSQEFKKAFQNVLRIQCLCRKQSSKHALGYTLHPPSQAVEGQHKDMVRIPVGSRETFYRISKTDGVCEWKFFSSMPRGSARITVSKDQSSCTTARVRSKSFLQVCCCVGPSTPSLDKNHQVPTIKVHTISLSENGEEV

[10] = Binding affinity to pig 5-HT1B receptor (unknown origin) assessed as inhibition constant
[11] = Ratio of drug uptake in rhesus monkey temporal cortex to cerebellum assessed as non-displaceable binding potential; type: ADME, tissue-based, Macaca mulatta; conditions: in vivo
[12] = biological target: 5-hydroxytryptamine receptor 2B (Homo sapiens, UniProt P41595)
[13] = biological target: T2, 5-hydroxytryptamine receptor 1A; remark: listed apart in the source
[14] = biological target: 5-hydroxytryptamine receptor 1D (Homo sapiens, UniProt P28221); assay: Binding affinity to 5-HT1D (unknown origin) assessed as inhibition constant
[15] = biological target: T4, 5-hydroxytryptamine receptor 7 (Homo sapiens, UniProt P34969)
[16] = biological target: T5, 5-hydroxytryptamine receptor 2C (Homo sapiens, UniProt P28335)
T5 sequence (P28335 whole entry): T1 sequence (whole entry)

[17] = biological target: 5-hydroxytryptamine receptor 5A (Homo sapiens, UniProt P47898); assay: Binding affinity to 5-HT5A receptor (unknown origin) assessed as inhibition constant
[18] = biological target: 5-hydroxytryptamine receptor 1B (Homo sapiens, UniProt P28222)
[19] = biological target: T6, 5-hydroxytryptamine receptor 1A (Rattus norvegicus, UniProt P19327)
T6 sequence (P19327 whole entry): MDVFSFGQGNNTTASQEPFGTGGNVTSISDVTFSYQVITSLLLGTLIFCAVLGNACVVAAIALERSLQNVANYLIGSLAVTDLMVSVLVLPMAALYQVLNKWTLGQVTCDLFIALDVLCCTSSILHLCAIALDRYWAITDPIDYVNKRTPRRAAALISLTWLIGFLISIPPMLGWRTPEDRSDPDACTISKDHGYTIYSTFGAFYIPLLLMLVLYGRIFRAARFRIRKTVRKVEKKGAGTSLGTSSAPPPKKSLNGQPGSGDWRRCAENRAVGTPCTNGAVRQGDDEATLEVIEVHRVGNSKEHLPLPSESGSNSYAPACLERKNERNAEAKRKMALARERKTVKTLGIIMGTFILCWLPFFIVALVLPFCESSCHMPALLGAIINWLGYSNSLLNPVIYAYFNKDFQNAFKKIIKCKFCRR

[20] = Drug uptake in pig brain cortex measured at 10 to 20 mins postinjection; type: ADME, organism-based, Sus scrofa; conditions: in vivo, time 10-20 min
[21] = Ratio of drug uptake in rat hippocampus to cerebellum by measuring radioactivity at […], iv; type: ADME, tissue-based; conditions: in vivo, dose 25-30 mCi
[22] = biological target: T4, 5-hydroxytryptamine receptor 7; assay: Binding affinity to human recombinant 5-HT7 receptor expressed in CHO cells assessed as inhibition constant; type: cell-based
[23] = biological target: T2, 5-hydroxytryptamine receptor 1A; assay: Binding affinity to 5-HT1A receptor in human HeLa cell membrane assessed as inhibition constant by Packard top-counter analysis; type: cell membranes
[24] = Drug uptake in cynomolgus monkey in brain administered IV measured at 7.5 mins relative to control; type: ADME, tissue-based, Macaca fascicularis; conditions: in vivo, 0.125 h

5-hydroxytryptamine receptor 2B, sequence (P41595 whole entry): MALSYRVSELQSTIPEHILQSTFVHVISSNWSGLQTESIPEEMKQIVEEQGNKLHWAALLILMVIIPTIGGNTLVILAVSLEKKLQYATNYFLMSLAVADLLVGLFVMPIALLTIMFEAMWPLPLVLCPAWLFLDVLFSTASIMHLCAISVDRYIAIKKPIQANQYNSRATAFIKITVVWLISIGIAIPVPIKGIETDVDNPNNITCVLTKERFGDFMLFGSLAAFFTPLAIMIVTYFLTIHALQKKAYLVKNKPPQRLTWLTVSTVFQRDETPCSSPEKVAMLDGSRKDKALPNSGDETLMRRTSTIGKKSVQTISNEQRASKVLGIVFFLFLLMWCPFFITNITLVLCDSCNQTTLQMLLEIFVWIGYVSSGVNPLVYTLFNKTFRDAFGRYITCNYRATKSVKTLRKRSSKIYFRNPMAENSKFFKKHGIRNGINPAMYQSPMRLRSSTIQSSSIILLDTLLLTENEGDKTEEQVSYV
T4 sequence (P34969 whole entry): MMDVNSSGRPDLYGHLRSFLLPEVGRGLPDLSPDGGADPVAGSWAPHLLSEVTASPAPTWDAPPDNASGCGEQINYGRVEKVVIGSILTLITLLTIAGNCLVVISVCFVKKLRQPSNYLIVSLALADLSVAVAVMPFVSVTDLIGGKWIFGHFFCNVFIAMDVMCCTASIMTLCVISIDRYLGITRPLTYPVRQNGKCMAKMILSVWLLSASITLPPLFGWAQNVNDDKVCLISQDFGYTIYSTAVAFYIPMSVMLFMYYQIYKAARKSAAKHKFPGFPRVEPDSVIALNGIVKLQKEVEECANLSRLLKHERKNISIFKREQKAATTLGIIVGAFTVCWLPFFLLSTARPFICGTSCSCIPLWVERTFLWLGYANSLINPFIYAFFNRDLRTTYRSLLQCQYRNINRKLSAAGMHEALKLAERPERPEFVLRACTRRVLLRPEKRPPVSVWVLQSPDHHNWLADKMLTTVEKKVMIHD
5-hydroxytryptamine receptor 2A, sequence (P28223 whole entry): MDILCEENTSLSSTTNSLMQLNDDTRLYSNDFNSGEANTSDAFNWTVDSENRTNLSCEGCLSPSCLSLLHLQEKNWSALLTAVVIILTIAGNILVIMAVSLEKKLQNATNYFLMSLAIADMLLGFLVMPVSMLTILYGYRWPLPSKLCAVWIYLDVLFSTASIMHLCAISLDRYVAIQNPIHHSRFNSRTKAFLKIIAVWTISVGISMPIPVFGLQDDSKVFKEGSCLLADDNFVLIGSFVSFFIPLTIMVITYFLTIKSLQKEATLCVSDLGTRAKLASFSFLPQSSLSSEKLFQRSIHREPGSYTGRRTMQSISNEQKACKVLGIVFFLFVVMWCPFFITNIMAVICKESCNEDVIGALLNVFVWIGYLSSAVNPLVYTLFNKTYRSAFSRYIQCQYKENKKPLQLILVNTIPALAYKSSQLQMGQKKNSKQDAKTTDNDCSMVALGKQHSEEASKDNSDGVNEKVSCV
5-hydroxytryptamine receptor 5A, sequence (P47898 whole entry): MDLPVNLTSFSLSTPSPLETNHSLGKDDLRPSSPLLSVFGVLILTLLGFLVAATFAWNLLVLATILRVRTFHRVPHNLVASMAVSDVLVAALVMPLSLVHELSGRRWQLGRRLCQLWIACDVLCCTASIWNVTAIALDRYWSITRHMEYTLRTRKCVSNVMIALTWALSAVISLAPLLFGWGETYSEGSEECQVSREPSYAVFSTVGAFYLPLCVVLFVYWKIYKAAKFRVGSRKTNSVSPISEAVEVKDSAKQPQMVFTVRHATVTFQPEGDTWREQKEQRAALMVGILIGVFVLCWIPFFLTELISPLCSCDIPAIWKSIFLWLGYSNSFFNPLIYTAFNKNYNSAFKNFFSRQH
5-hydroxytryptamine receptor 1B, sequence (P28222 whole entry): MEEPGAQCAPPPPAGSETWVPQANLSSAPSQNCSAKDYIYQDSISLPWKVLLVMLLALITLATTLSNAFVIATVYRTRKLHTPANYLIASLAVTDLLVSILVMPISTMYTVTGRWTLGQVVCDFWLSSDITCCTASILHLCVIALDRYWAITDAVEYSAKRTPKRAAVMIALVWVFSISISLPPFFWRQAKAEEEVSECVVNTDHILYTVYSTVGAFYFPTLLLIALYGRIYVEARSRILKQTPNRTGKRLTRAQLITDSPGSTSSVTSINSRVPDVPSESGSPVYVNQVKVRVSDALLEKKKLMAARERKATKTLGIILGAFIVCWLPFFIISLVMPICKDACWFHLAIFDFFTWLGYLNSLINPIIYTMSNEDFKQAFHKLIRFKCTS
5-hydroxytryptamine receptor 1D, sequence (P28221 whole entry): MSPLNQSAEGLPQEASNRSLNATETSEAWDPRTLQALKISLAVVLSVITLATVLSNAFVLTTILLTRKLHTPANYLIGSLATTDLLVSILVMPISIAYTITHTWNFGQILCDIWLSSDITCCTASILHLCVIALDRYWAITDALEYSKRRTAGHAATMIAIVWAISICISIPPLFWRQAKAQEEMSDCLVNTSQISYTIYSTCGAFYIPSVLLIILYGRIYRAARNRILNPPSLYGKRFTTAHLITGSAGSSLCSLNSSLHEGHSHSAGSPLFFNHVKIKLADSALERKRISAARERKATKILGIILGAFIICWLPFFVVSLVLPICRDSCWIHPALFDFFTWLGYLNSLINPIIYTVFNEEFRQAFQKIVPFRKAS

COc1ccccc1N1CCN(CCN(c2cccc(Br)n2)[11C](=O)N2CCCCC2)CC1
Ratio [1]: 1.9
Ratio [2]: 3

c1cc2c3c(c1)[C@H]1CCC[C@H]1N3CCNC2
K [3]: 10 nM
K [4]: 8 nM

COc1cc(C(F)(F)F)c(OC)cc1CCNCc1ccccc1O[11CH3]
Drug uptake [5]: 0.82

COc1ccccc1N1CCN(CCCCc2ccc3c(c2)oc(=O)n3C)CC1
Ki [6]: 0.04 nM

CC1(NC(=O)c2ccc(N)cc2)CCN(CCCOc2ccc([18F])cc2)CC1
logD [7]: 2.53

COc1c(Br)cc([18F])cc1CCNCc1ccccc1O
Ki [8]: 7.2 nM

c1cc2c3c(c1)[C@H]1CCC[C@H]1CN3CCNC2
K [3]: 3 nM
K [4]: 8 nM

O=C(C1CCCCC1)N(CCN1CCN(c2ccccc2O)CC1)c1ccccn1
Ki [9]: 364 nM
Ki [6]: 1.4 nM

CCCN(CCCCC1C(=O)CC2(CCCC2)CC1=O)[C@H]1CCc2cccc(OC)c2C1
Ki [6]: 0.9 nM

O=C(NCCN1CCN(c2cccc(C(F)(F)F)n2)CC1)c1ccc(F)cc1
Ki [6]: 0.5 nM

COc1ccccc1N1CCN(CCNC(=O)c2ccncc2)CC1
Ki [9]: 20 nM

CN1CCN(c2cc(F)cc3c(=O)cc(C(=O)Nc4ccc(N5CCOCC5)c(F)c4)oc23)CC1
Ki [10]: 0.13 nM

COc1ccccc1N1CCN(CCCN/C(=N\C#N)c2ccccn2)CC1
Ki [9]: 20 nM

CN1CCN(c2cccc3c2C[C@H](NC(=O)c2ccc(OS(C)(=O)=O)cc2)CC3)CC1
Ki [10]: 0.25 nM

COc1ccccc1N1CCN(CCN(c2ccccn2)C(=O)[C@H]2CC[C@H](C[18F])CC2)CC1
Ratio [11]: 7.7
Ki [6]: 0.9 nM

CC(C)c1cc(-c2ccc(F)c3ccccc23)nc(N)n1
Ki [12]: 0.3 nM

[11CH3]Sc1cccc(C(=O)NC[C@H]2CCCN2CCc2ccccc2)c1
Ki [6]: 160 nM

COC(=O)N1CCN(c2ccc(NC(=O)C3CCc4cc(F)cc(N5CCN([11CH3])CC5)c4O3)cc2)CC1 (stereo unspecified)
Ki [10]: 0.5 nM

NC(=O)c1ccc(F)c2c1CC(N(C1CCC1)C1CCC1)CO2 (stereo unspecified)
logD [7]: 2.5
Ki [6]: 0.6 nM

O=C(NCCN1CCN(C2CCCc3ccccc32)CC1)c1ccc([18F])cc1 (stereo unspecified)
Ki [6]: 0.5 nM

[11CH3]N1CCN(c2cccc3c2OC(C(=O)Nc2ccc(N4CCOCC4)cc2)CC3)CC1 (racemic)
Ki [10]: 0.4 nM

[11CH3]N1CCN(c2cccc3c2O[C@@H](C(=O)Nc2ccc(N4CCOCC4)cc2)CC3)CC1
Ki [10]: 0.3 nM

CC(=O)Nc1ccc2[nH]cc(C3CCN(C)CC3)c2n1
Ki [13]: > 240 nM
Ki [14]: > 240 nM
Ki [15]: > 240 nM
Ki [16]: > 240 nM
Ki [17]: > 240 nM
Ki [12]: > 240 nM
Ki [18]: > 240 nM

COc1ccccc1N1CCN(CCN(C(=O)c2ccc(F)c(C)c2)c2ccccn2)CC1
Ki [9]: 13 nM

CCCN(CCC)C1CCc2cccc(SC)c2C1 (racemic)
IC50 [19]: 1.2 nM

COc1cc(CCNCc2ccccc2OC)c(O[11CH3])cc1I
SUV [20]: 0.8

O=C(C1CCCCC1)N(CCN1CCN(c2ccccc2OCC[18F])CC1)c1ccccn1
Ratio [21]: 5.5

O=S(=O)(c1ccccc1F)N1CCC[C@@H]1CCCN1CCN(c2ccc(Cl)cc2)CC1
Ki [22]: 0.22 nM

COc1cccc2c1CCCC2CCCN1CCN(c2ccccc2)CC1 (stereo unspecified)
Ki [6]: 0.5 nM

COc1ccccc1N1CCN(CCNC(=O)c2ccccn2)CC1
Ki [9]: 20 nM

CC1CCN(CCC[C@H]2CCCN2S(=O)(=O)c2ccc(F)cc2)CC1
Ki [22]: 16 nM

COc1ccccc1N1CCN(CCN(c2cccc(F)n2)[11C](=O)N2CCCCC2)CC1
Ratio [1]: 1.9
Ratio [2]: 3

[11CH3]N1CCN(c2cccc3c2O[C@H](C(=O)Nc2ccc(N4CCOCC4)cc2)CC3)CC1
Ki [10]: 0.6 nM

CCCN(CCC)[C@@H]1CCc2cccc(SC)c2C1
Ki [6]: 0.6 nM

COc1c(Br)cc([18F])cc1CCNCc1cccc2c1OCO2
Ki [8]: 1.7 nM

O=S(=O)(c1ccc(F)cc1)N1CCC[C@@H]1CCCN1CCN(c2ccc(Cl)cc2)CC1
Ki [22]: 0.32 nM

CN1CCN(c2cccc3c2C[C@@H](NC(=O)c2ccc(N4CCOCC4)cc2)CC3)CC1
Ki [10]: 0.46 nM

COc1ccccc1N1CCN(CCN(c2ccccn2)C(=O)[C@H]2CC[C@@H](C[18F])CC2)CC1
Ratio [11]: 0.58

COc1ccccc1N1CCN(CCNC(=O)C2CC3CCC2CC3)CC1 (stereo unspecified)
IC50 [19]: 1 nM

COc1cc(Br)c(O[11CH3])cc1CCNCc1ccccc1OC
SUV [20]: 0.8

COc1ccccc1N1CCN(CCN(C(=O)N2CCCCC2)c2cccc(F)n2)CC1
Ki [23]: 0.51 nM

COc1ccccc1N1CCN(CCN(C(=O)N2CCCCC2)c2cccc(Br)n2)CC1
Ki [23]: 0.31 nM

COc1cc(CCN)c(O[11CH3])cc1I
Drug uptake [5]: 0.17

CC1CCN(CCC[C@H]2CCCN2S(=O)(=O)c2ccccc2F)CC1
Ki [22]: 7.6 nM

O=S(=O)(c1ccccc1F)N1CCC[C@@H]1CCCN1CCN(c2ccccn2)CC1
Ki [22]: 0.17 nM

Cc1[nH]c2ccc(NC(=O)c3ccc(F)cc3)cc2c1CCN(C)C
Ki [13]: > 260 nM
Ki [14]: > 260 nM
Ki [15]: > 260 nM
Ki [16]: > 260 nM
Ki [17]: > 260 nM
Ki [12]: > 260 nM
Ki [18]: > 260 nM

[11CH3]Oc1ccccc1N1CCN(CCCN/C(=N\C#N)c2ccccn2)CC1
Ki [6]: 0.8 nM

CCCN(CCCSC)C1CCc2cccc(O)c2C1 (racemic)
Ki [6]: 0.19 nM

COc1cc(Br)c(OC)c(CCNCc2cccc(F)c2)c1
Ki [8]: 2.7 nM

COc1cc(CCNCc2ccccc2F)c(O[11CH3])cc1I
Drug uptake [5]: 0.17

CCc1cc(OC)cc(CCNCc2cccc(F)c2)c1OC
Ki [8]: 2.4 nM

CCC(=O)Nc1ccc2[nH]cc(C3CCN(C)CC3)c2n1
Ki [13]: > 300 nM
Ki [14]: > 300 nM
Ki [15]: > 300 nM
Ki [16]: > 300 nM
Ki [17]: > 300 nM
Ki [12]: > 300 nM
Ki [18]: > 300 nM

COc1ccccc1N1CCN(CCN(c2cccc(F)n2)[11C](=O)C2CCCCC2)CC1
Drug uptake [24]: 8%

Cc1ccc(N2CCN([11CH3])CC2)c2nc(C(=O)Nc3ccc(N4CCOCC4)cc3)ccc12
Ki [10]: 0.2 nM

COc1ccccc1N1CCN(CCNC(=O)C2CCCCC2)CC1
IC50 [19]: 4.3 nM

O=C(C1CCCCC1)N(CCN1CCN(c2ccccc2OCCC[18F])CC1)c1ccccn1
Ratio [21]: 7.5

— ChEMBL document CHEMBL5108009, “Positron Emission Tomography (PET) Imaging Tracers for Serotonin Receptors” (J Med Chem, 2022)
